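Tested at 5 concentrations; 48 h exposure; 96-well plates; endpoints linearly interpolated, else capped at highest concentration. Here, GI50 denotes the concentration required for 50% inhibition of growth.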 Active and inactive are the calls of the source. Cut-off read from the data, not from the text of the source: active = GI50 up to about 1.1 µM and inactive = higher.
What was measured:
Test in all cases: NCI tumour cell line growth inhibition, 48 h
OVCAR-3 = test system: OVCAR-3
NCI-H23 = test system: NCI-H23
UACC-257 = test system: UACC-257
COLO 205 = test system: COLO 205
HT-29 = test system: HT-29
MCF7 = test system: MCF7
BT-549 = test system: BT-549
DU-145 = test system: DU-145
786-0 = test system: 786-0
OVCAR-4 = test system: OVCAR-4
Malme-3M = test system: Malme-3M
NCI-H460 = test system: NCI-H460
SW-620 = test system: SW-620
SF-268 = test system: SF-268
A549 = test system: A549
IGROV-1 = test system: IGROV-1
TK-10 = test system: TK-10
EKVX = test system: EKVX
MDA-MB-435 = test system: MDA-MB-435
A498 = test system: A498

Measured: GI50

CC(C)c1ccc(/C=C2\CSCC3=C2N=C(S)NC3c2ccc(C(C)C)cc2)cc1 (stereo unspecified)
inactive: OVCAR-3 > 100 µM | NCI-H23 46.5 µM | UACC-257 34.6 µM | COLO 205 > 100 µM | HT-29 45.1 µM | MCF7 88.3 µM | BT-549 > 100 µM | DU-145 > 100 µM | 786-0 > 100 µM | OVCAR-4 > 100 µM | Malme-3M 36.1 µM | NCI-H460 > 100 µM | SW-620 > 100 µM | SF-268 > 100 µM | A549 80.9 µM | IGROV-1 > 100 µM | TK-10 > 100 µM | EKVX 61.8 µM

C=C(c1ccccc1)c1ccccc1-c1cc(-c2ccccc2)cc(-c2ccccc2)n1
inactive: OVCAR-3 76.6 µM | NCI-H23 > 100 µM | UACC-257 > 100 µM | HT-29 99.5 µM | MCF7 > 100 µM | DU-145 > 100 µM | 786-0 > 100 µM | Malme-3M > 100 µM | NCI-H460 > 100 µM | SW-620 > 100 µM | SF-268 > 100 µM | A549 > 100 µM | MDA-MB-435 82.2 µM | A498 > 100 µM | IGROV-1 > 100 µM | TK-10 > 100 µM | EKVX > 100 µM

C/C(CC(O)(/C=N/O)c1ccccc1)=N/O (stereo unspecified)
inactive: OVCAR-3 > 100 µM | NCI-H23 > 100 µM | UACC-257 > 100 µM | HT-29 > 100 µM | MCF7 > 100 µM | BT-549 > 100 µM | 786-0 > 100 µM | OVCAR-4 > 100 µM | Malme-3M > 100 µM | NCI-H460 > 100 µM | SW-620 > 100 µM | SF-268 > 100 µM | A549 > 100 µM | MDA-MB-435 > 100 µM | IGROV-1 > 100 µM | TK-10 > 100 µM | EKVX > 100 µM

CC(C)=CC1C(COC(=O)c2ccccc2Cl)C1(C)C (stereo unspecified)
inactive: OVCAR-3 26.1 µM | NCI-H23 31.8 µM | UACC-257 48.9 µM | HT-29 29.6 µM | BT-549 33.5 µM | DU-145 32.8 µM | 786-0 33.2 µM | OVCAR-4 42.2 µM | Malme-3M 23 µM | NCI-H460 35.7 µM | SW-620 51.3 µM | SF-268 27.5 µM | A549 36.9 µM | MDA-MB-435 85.1 µM | A498 > 100 µM | IGROV-1 23.5 µM | TK-10 > 100 µM | EKVX 25.8 µM

O=C1C(O)=C(Cl)C(=O)c2c(O)ccc(O)c21
inactive: OVCAR-3 > 100 µM | NCI-H23 > 100 µM | UACC-257 > 100 µM | COLO 205 > 100 µM | HT-29 > 100 µM | MCF7 > 100 µM | DU-145 > 100 µM | 786-0 > 100 µM | OVCAR-4 > 100 µM | Malme-3M 20.1 µM | NCI-H460 > 100 µM | SW-620 > 100 µM | SF-268 > 100 µM | A549 > 100 µM | A498 > 100 µM | IGROV-1 > 100 µM | TK-10 > 100 µM | EKVX > 100 µM

COC(=O)[C@@](NC(=O)OCc1ccccc1)([C@H](C)O)C(F)(F)F
inactive: OVCAR-3 > 100 µM | NCI-H23 > 100 µM | UACC-257 > 100 µM | COLO 205 > 100 µM | HT-29 > 100 µM | BT-549 > 100 µM | DU-145 > 100 µM | 786-0 > 100 µM | OVCAR-4 > 100 µM | Malme-3M > 100 µM | NCI-H460 > 100 µM | SW-620 > 100 µM | SF-268 > 100 µM | A549 > 100 µM | MDA-MB-435 > 100 µM | A498 > 100 µM | IGROV-1 > 100 µM | TK-10 > 100 µM | EKVX > 100 µM

CC1(C)COC(c2cccc(C(O)c3ccc(Cl)cc3)c2)=N1 (stereo unspecified)
inactive: OVCAR-3 20.1 µM | NCI-H23 23.9 µM | COLO 205 18 µM | HT-29 17.7 µM | MCF7 19.6 µM | DU-145 58.2 µM | 786-0 23.9 µM | OVCAR-4 56.8 µM | Malme-3M 25.1 µM | NCI-H460 29.4 µM | SW-620 28.9 µM | SF-268 31.1 µM | A549 > 10 µM | MDA-MB-435 24.9 µM | IGROV-1 30.5 µM | TK-10 32.6 µM | EKVX 35.4 µM

C[C@]12CCC[C@H](Cl)C1(O)C[C@H](C(=O)O)CC2 (stereo partly specified)
inactive: OVCAR-3 > 100 µM | NCI-H23 > 100 µM | UACC-257 > 100 µM | COLO 205 > 100 µM | HT-29 > 100 µM | 786-0 > 100 µM | OVCAR-4 > 100 µM | Malme-3M > 100 µM | NCI-H460 > 100 µM | SW-620 > 100 µM | SF-268 > 100 µM | A549 > 100 µM | A498 > 100 µM | IGROV-1 > 100 µM | TK-10 > 100 µM | EKVX > 100 µM

COC(=O)C(=O)C1CCCCC(C2=NC3NN=C(N)N3C2=O)C1=O (stereo unspecified)
inactive: OVCAR-3 > 100 µM | NCI-H23 > 100 µM | UACC-257 > 100 µM | COLO 205 > 100 µM | HT-29 > 100 µM | 786-0 > 100 µM | OVCAR-4 > 100 µM | Malme-3M > 100 µM | NCI-H460 > 100 µM | SW-620 > 100 µM | SF-268 > 100 µM | A549 > 100 µM | A498 > 100 µM | IGROV-1 > 100 µM | TK-10 > 100 µM | EKVX > 100 µM

OCC1CC2C=CCC(C2)C1 (stereo unspecified)
inactive: OVCAR-3 > 100 µM | NCI-H23 > 100 µM | UACC-257 > 100 µM | COLO 205 > 100 µM | HT-29 > 100 µM | 786-0 > 100 µM | OVCAR-4 > 100 µM | Malme-3M > 100 µM | NCI-H460 > 100 µM | SW-620 > 100 µM | SF-268 > 100 µM | A549 > 100 µM | A498 > 100 µM | IGROV-1 > 100 µM | TK-10 > 100 µM | EKVX > 100 µM

Cc1c(Cl)ccc2c1NC(=O)C2(O)CC(=O)c1ccc(Cl)cc1 (stereo unspecified)
inactive: OVCAR-3 57.3 µM | NCI-H23 54.5 µM | UACC-257 23.7 µM | COLO 205 32.4 µM | HT-29 35 µM | 786-0 47.1 µM | OVCAR-4 43.7 µM | Malme-3M 37.8 µM | NCI-H460 29.6 µM | SW-620 29.9 µM | SF-268 > 70.1 µM | A549 > 100 µM | A498 > 43.3 µM | IGROV-1 > 100 µM | TK-10 > 100 µM | EKVX > 55.8 µM

Cc1cccc(C)c1NC(=O)C(=O)CC(=O)CO
inactive: OVCAR-3 > 100 µM | NCI-H23 > 100 µM | UACC-257 > 100 µM | COLO 205 > 100 µM | HT-29 > 100 µM | 786-0 > 100 µM | OVCAR-4 > 100 µM | Malme-3M > 100 µM | NCI-H460 > 100 µM | SW-620 > 100 µM | SF-268 > 100 µM | A549 > 100 µM | A498 > 100 µM | IGROV-1 > 100 µM | TK-10 > 100 µM | EKVX > 100 µM

O=C(O)/C(Cl)=C(\Cl)C(=O)Nc1ccccc1
inactive: OVCAR-3 > 100 µM | NCI-H23 > 100 µM | UACC-257 > 100 µM | COLO 205 > 100 µM | HT-29 > 100 µM | 786-0 > 100 µM | OVCAR-4 > 100 µM | Malme-3M > 100 µM | NCI-H460 > 100 µM | SW-620 > 100 µM | SF-268 > 100 µM | A549 > 100 µM | A498 > 100 µM | IGROV-1 > 100 µM | TK-10 > 100 µM | EKVX > 100 µM

CCOc1ccc2nc(NC(=O)C(=O)C(c3cnc4ccccc4n3)[N+](=O)[O-])sc2c1 (stereo unspecified)
inactive: OVCAR-3 > 100 µM | NCI-H23 74.5 µM | UACC-257 > 100 µM | HT-29 > 100 µM | MCF7 > 100 µM | BT-549 > 100 µM | 786-0 > 100 µM | OVCAR-4 > 100 µM | Malme-3M > 100 µM | NCI-H460 > 100 µM | SF-268 > 100 µM | A549 > 100 µM | A498 > 100 µM | IGROV-1 41.4 µM | TK-10 > 100 µM | EKVX 96.8 µM

Nc1ccc(N)c2c1C(=O)c1c(N)ccc(N)c1C2=O
inactive: OVCAR-3 25.1 µM | NCI-H23 > 73.1 µM | UACC-257 > 87.1 µM | COLO 205 58.6 µM | HT-29 > 100 µM | 786-0 36.9 µM | OVCAR-4 37.1 µM | Malme-3M > 100 µM | NCI-H460 > 73.5 µM | SW-620 52.6 µM | SF-268 45.7 µM | A549 62.7 µM | A498 61 µM | IGROV-1 > 100 µM | TK-10 > 59.3 µM | EKVX > 64.9 µM

O=c1oc2ccccc2cc1-c1nc2ccccc2s1
inactive: OVCAR-3 6.4 µM | NCI-H23 15.6 µM | UACC-257 28.1 µM | COLO 205 23.2 µM | HT-29 11.2 µM | BT-549 17.2 µM | DU-145 14.2 µM | 786-0 4.58 µM | OVCAR-4 11.6 µM | Malme-3M 2.2 µM | NCI-H460 7.45 µM | SW-620 14.3 µM | SF-268 8.73 µM | A549 4.94 µM | MDA-MB-435 5.36 µM | A498 13.4 µM | IGROV-1 3.33 µM | TK-10 12.6 µM | EKVX 11.5 µM

Reference: ChEMBL document CHEMBL1201862, “PubChem BioAssay data set” (2004)
